Experimental data as given in patent US20230348426A1, “OXOPYRROLIDINE FPR2 AGONISTS” (Bristol-Myers Squibb Company, priority 2020, published 2023).

Key:
human FPR2 = human FPR2 (Homo sapiens (Human), UniProt P25090); experiment: FPR2 cyclic adenosine monophosphate (cAMP) assay; assay type: cell-based; settings: CHO cells overexpressing human FPR2; forskolin 5 µM; inhibition of cAMP production; read-out: hFPR2 cAMP2 EC50
Excerpt: (§1) N-formyl peptide receptors (FPRs) are a family of chemo attractant receptors that facilitate leukocyte response during inflammation. FPRs belong to the seven-transmembrane G protein-coupled receptor superfamily and are linked to inhibitory G-proteins (Gi). Three family members (FPR1, FPR2 and FPR3) have been identified in humans and are predominantly found in myeloid cells with varied distribution and have also been reported in multiple organs and tissues. After agonist binding, the FPRs activate a multitude of physiological pathways, such as intra cellular signaling transduction, Ca^2+ mobilization and transcription. The family interacts with a diverse set of ligands that includes proteins, polypeptides and fatty acid metabolites which activate both pro-inflammatory and pro-resolution downstream responses. FPR2 and FPR1 Cyclic Adenosine Monophosphate (cAMP) Assays were used to measure the activity of the compounds in this patent.
(§2) FPR2 and FPR1 Cyclic Adenosine Monophosphate (cAMP) Assays. A mixture of forskolin (5 µM final for FPR2 or 10 µM final for FPR1) and IBMX (200 µM final) were added to 384-well Proxiplates (Perkin-Elmer) pre-dotted with test compounds in DMSO (1% final) at final concentrations in the range of 0.020 nM to 100 µM. Chinese Hamster Ovary cells (CHO) overexpressing human FPR1 or human FPR2 receptors were cultured in F-12 (Ham’s) medium supplemented with 10% qualified FBS, 250 µg/ml zeocin and 300 µg/ml hygromycin (Life Technologies). Reactions were initiated by adding 2,000 human FPR2 cells per well or 4,000 human FPR1 cells per well in Dulbecco’s PBS (with calcium and magnesium) (Life Technologies) supplemented with 0.1% BSA (Perkin-Elmer). The reaction mixtures were incubated for 30 min at room temperature. The level of intracellular cAMP was determined using the HTRF HiRange cAMP assay reagent kit (Cisbio) according to manufacturer’s instruction. Solutions of cryptate conjugated anti-cAMP and d2 flurorophore-labelled cAMP were made in a supplied lysis buffer separately. Upon completion of the reaction, the cells were lysed with equal volume of the d2-cAMP solution and anti-cAMP solution. After a 1-h room temperature incubation, time-resolved fluorescence intensity was measured using the Envision (Perkin-Elmer) at 400 nm excitation and dual emission at 590 nm and 665 nm. A calibration curve was constructed with an external cAMP standard at concentrations ranging from 1 µM to 0.1 pM by plotting the fluorescent intensity ratio from 665 nm emission to the intensity from the 590 nm emission against cAMP concentrations. The potency and activity of a compound to inhibit cAMP production was then determined by fitting to a 4-parametric logistic equation from a plot of cAMP level versus compound concentrations.

human FPR1 = human FPR1 (Homo sapiens (Human), UniProt P21462); experiment: FPR1 cyclic adenosine monophosphate (cAMP) assay; assay type: cell-based; settings: CHO cells overexpressing human FPR1; forskolin 10 µM; inhibition of cAMP production; read-out: hFPR1 cAMP EC50
Sequence of human FPR1 (P21462 whole entry): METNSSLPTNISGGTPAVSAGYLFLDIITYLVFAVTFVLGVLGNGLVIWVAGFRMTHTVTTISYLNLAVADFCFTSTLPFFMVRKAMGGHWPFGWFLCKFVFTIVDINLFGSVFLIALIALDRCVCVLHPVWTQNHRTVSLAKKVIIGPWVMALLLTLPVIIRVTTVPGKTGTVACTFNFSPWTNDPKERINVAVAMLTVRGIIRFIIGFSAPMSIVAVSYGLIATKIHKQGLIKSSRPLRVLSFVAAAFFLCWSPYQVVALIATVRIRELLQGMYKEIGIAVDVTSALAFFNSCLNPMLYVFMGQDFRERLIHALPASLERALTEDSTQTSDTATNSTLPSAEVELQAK
Excerpt: as §1
as §2, with “After a 1-h room temperature incubation, time-resolved fluorescence intensity was measured using the Envision (Perkin-Elmer) at 400 nm excitation and dual emission at 590 nm and 665 nm. A calibration curve was constructed with an external cAMP standard at concentrations ranging from 1 µM to 0.1 pM by plotting the fluorescent intensity ratio from 665 nm emission to the intensity from the 590 nm emission against cAMP concentrations.” left out

Sequence of human FPR2 (P25090 whole entry): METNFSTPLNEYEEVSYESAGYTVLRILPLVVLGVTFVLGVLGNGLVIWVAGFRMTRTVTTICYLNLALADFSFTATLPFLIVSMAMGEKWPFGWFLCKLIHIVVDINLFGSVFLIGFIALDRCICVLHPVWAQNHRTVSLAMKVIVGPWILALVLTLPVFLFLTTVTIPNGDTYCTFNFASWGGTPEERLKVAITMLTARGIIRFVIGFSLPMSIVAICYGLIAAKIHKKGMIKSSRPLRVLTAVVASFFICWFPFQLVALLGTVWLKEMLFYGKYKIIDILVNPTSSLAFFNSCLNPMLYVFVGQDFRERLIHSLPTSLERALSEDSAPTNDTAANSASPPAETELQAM

| EC50 (human FPR2) [nM] | EC50 (human FPR1) [nM] | SMILES |
| --- | --- | --- |
| 2 | 1900 | COc1cc(F)c([C@@H]2CN(c3nccc(NCCS(C)(=O)=O)c3C(F)(F)F)C(=O)[C@H]2NC(=O)c2ccc(Cl)cc2)c(F)c1 [Example 451] |
| 4.5 | 39 | COCC(C(=O)N(C)C)n1cccc(N2C[C@@H](c3c(F)cc(OC)cc3F)[C@H](NC(=O)c3ccc(OC(F)F)cc3)C2=O)c1=O (some centres unmarked) [Example 172] |
| 10 | 44 | COc1cc(F)c([C@@H]2CN(c3cccn(C4CCOC4)c3=O)C(=O)[C@H]2NC(=O)c2ccc(OC(F)F)cc2)c(F)c1 (some centres unmarked) [Example 320] |
| 14 | 480 | COc1cc(F)c([C@@H]2CN(c3nccc(N4C[C@@H]5C[C@H]4CN5C)c3C(F)(F)F)C(=O)[C@H]2NC(=O)c2ccc(Cl)cc2)c(F)c1 [Example 334] |
| 5.6 | 1800 | COc1cc(F)c([C@@H]2CN(c3cccc(N4C[C@@H](C)N(C)[C@@H](C)C4)n3)C(=O)[C@@H]2NC(=O)c2ccc(OC(F)F)cc2)c(F)c1 [Example 213] |
| 5.1 | 0.8 | COc1ccc([C@@H]2CN(c3c(C)ccn(CC4CC4)c3=O)C(=O)[C@H]2NC(=O)c2ccc(OC(F)F)cc2)c(F)c1 [Example 192] |
| 31 | 86 | COc1cc(F)c([C@@H]2CN(c3cccc(=O)n3C)C(=O)[C@H]2NC(=O)c2ccc(OC(F)(F)F)cc2)c(F)c1 [Example 11] |
| 1.6 | 4 | CCn1c2c(cc(N3C[C@@H](c4c(F)cc(OC)cc4F)[C@H](NC(=O)c4ccc(Cl)cc4)C3=O)c1=O)CCCC2 [Example 464] |
| 1.1 | 600 | COc1cc(CO)nc(N2C[C@@H](c3c(F)cc(OC)cc3F)[C@H](NC(=O)c3ccc(OC(F)(F)F)cc3)C2=O)c1 [Example 587] |
| 2.8 | 4.7 | O=C(N[C@@H]1C(=O)N(c2cccn(CCO)c2=O)C[C@H]1c1ccc(Cl)cc1)c1ccc(OC(F)(F)F)cc1 [Example 102] |
| 4.3 | 2300 | COc1cc(F)c([C@@H]2CN(c3nccc(NCC(C)(C)O)c3C(F)(F)F)C(=O)[C@H]2NC(=O)c2ccc(Cl)cc2)c(F)c1 [Example 166] |
| 2.3 | 2.3 | COCC(CO)n1ccc(C)c(N2C[C@@H](c3ccc(OC)cc3)[C@H](NC(=O)c3ccc(OC(F)(F)F)cc3)C2=O)c1=O (some centres unmarked) [Example 563] |
| 1.8 | 4.4 | CCn1cccc(N2C[C@@H](c3ccc(Cl)cc3)[C@H](NC(=O)c3ccc(OC(F)(F)F)cc3)C2=O)c1=O [Example 67] |
| 2 | 14 | CCn1nccc(N2C[C@@H](c3c(F)cc(OC)cc3F)[C@H](NC(=O)c3ccc(OC(F)F)cc3)C2=O)c1=O [Example 358] |
| 2.2 | 7.6 | CCn1cccc(N2C[C@@H](c3ccc(OC)cc3F)[C@H](NC(=O)c3ccc(OC(F)F)cc3)C2=O)c1=O [Example 83] |
| 1.5 | 6 | COc1ccc([C@@H]2CN(c3c(C)ccn(C4COC4)c3=O)C(=O)[C@H]2NC(=O)c2ccc(OC(F)(F)F)cc2)cc1 [Example 578] |
| 3.8 | 1.2 | COc1cc(F)c([C@@H]2CN(c3c(C)ccn(C4CCOC4)c3=O)C(=O)[C@H]2NC(=O)c2ccc(OC(F)(F)F)cc2)c(F)c1 (some centres unmarked) [Example 655] |
| < 5 | 3 | COc1cc(F)c([C@@H]2CN(c3cc4c(n(CCO)c3=O)CCCC4)C(=O)[C@H]2NC(=O)c2ccc(OC(F)F)cc2)c(F)c1 [Example 446] |
| 10 | 750 | COc1cc(F)c([C@@H]2CN(c3cccnc3P(C)(C)=O)C(=O)[C@H]2NC(=O)c2ccc(OC(F)F)cc2)c(F)c1 [Example 30] |

| EC50 (human FPR2) [nM] | EC50 (human FPR1) [nM] | SMILES |
| --- | --- | --- |
| 1.3 | 2000 | COc1cc(C2CCN(C)CC2)nc(N2C(=O)[C@@H](NC(=O)c3ccc(OC(F)F)cc3)[C@H](c3c(F)cc(OC)cc3F)[C@@H]2C)c1 [Example 538] |
| 0.6 | 3.9 | COCC(CO)n1cccc(N2C[C@@H](c3ccc(OC)cc3F)[C@H](NC(=O)c3ccc(OC(F)(F)F)cc3)C2=O)c1=O (some centres unmarked) [Example 705] |
| 4.7 | 1100 | COCCNc1ccnc(N2C[C@@H](c3c(F)cc(OC)cc3F)[C@H](NC(=O)c3ccc(Cl)cc3)C2=O)c1C(F)(F)F [Example 423] |
| 43.7 | 860 | COc1cc(F)c([C@@H]2CN(c3cnn4c3OCCC4)C(=O)[C@H]2NC(=O)c2ccc(Cl)cc2)c(F)c1 [Example 596] |
| 4.3 | 170 | COc1cc(F)c([C@H]2[C@H](NC(=O)c3ccc(OC(F)F)cc3)C(=O)N(c3cccc(N4CC[C@@H](O)C4)n3)[C@H]2C)c(F)c1 [Example 561] |
| 5 | 3400 | COc1cc(F)c([C@@H]2CN(c3cc(Cl)cn(C)c3=O)C(=O)[C@H]2NC(=O)c2ccc(Cl)cc2)c(F)c1 [Example 189] |
| 3.3 | 6.3 | CCn1cccc(N2C[C@@H](c3ccc(OC)cc3)[C@H](NC(=O)c3ccc(OC(F)(F)F)cc3)C2=O)c1=O [Example 128] |
| 3.3 | 390 | COCCn1cccc(N2C(=O)[C@@H](NC(=O)c3ccc(OC(F)F)cc3)[C@H](c3c(F)cc(OC)cc3F)[C@H]2C)c1=O [Example 127] |
| 27 | 570 | COc1cc(F)c([C@@H]2CN(c3ncccc3CO)C(=O)[C@H]2NC(=O)c2ccc(OC(F)(F)F)cc2)c(F)c1 [Example 27] |
| 280 | > 5000 | COc1cc(C2CCN(CC(F)(F)F)CC2)nc(N2C(=O)[C@@H](NC(=O)c3ccc(OC(F)F)cc3)[C@H](c3c(F)cc(OC)cc3F)[C@@H]2C)c1 [Example 548] |
| 8.6 | 1800 | CNC(=O)C(C)Nc1ccnc(N2C[C@@H](c3c(F)cc(OC)cc3F)[C@H](NC(=O)c3ccc(Cl)cc3)C2=O)c1C(F)(F)F (some centres unmarked) [Example 290] |
| 32 | 830 | COCCn1cccc(N2C[C@@H](c3c(F)cc(OC)cc3F)[C@H](NC(=O)c3ccc(OC)cc3)C2=O)c1=O [Example 342] |
| 20 | 53 | COc1cc(F)c([C@@H]2CN(c3c(C)c4c(n(CCO)c3=O)CCCC4)C(=O)[C@H]2NC(=O)c2ccc(OC(F)(F)F)cc2)c(F)c1 [Example 606] |
| 7.2 | 700 | COCCn1ccnc1N1C[C@@H](c2c(F)cc(OC)cc2F)[C@H](NC(=O)c2ccc(OC(F)(F)F)cc2)C1=O [Example 652] |
| 7.3 | 51 | COc1cc(F)c([C@@H]2CN(c3nccc(N4CCOCC4)c3C(F)(F)F)C(=O)[C@H]2NC(=O)c2ccc(Cl)cc2)c(F)c1 [Example 420] |
| 8.4 | 2.2 | COc1cc(F)c([C@@H]2CN(c3c(C)ccn([C@H]4COC[C@@H]4O)c3=O)C(=O)[C@H]2NC(=O)c2ccc(OC(F)(F)F)cc2)c(F)c1 [Example 622] |
| 23 | 0.6 | COCCn1ccc(C)c(N2C[C@@H](c3ccc(Cl)cc3)[C@H](NC(=O)c3ccc(OC(F)(F)F)cc3)C2=O)c1=O [Example 339] |
| 3.8 | 19 | COc1cc(F)c([C@@H]2CN(c3cccn(CC(F)F)c3=O)C(=O)[C@H]2NC(=O)c2ccc(OC(F)(F)F)cc2)c(F)c1 [Example 148] |
